System: ecdysone receptor (EcR) based, chemically inducible gene expression system
Test: Ecdysone receptor-based gene induction: upstream LUC activation and downstream RLUC expression in protoplasts
Assay type: cell-based, tobacco
Method: Protoplasts were prepared from actively growing tobacco BY-2 suspension cells (Japan Tobacco, Japan) and cultured essentially as described in Kikkawa et al. (9). One ml of protoplasts (5×10^5 to 1×10^6 cells) was mixed with plasmid DNA and electroporated at 0.56 K Volts for 80 μ seconds using an electroporation system with petripulser electrode (BTX). Equimolar plasmid DNA was added to transfections and the amount of DNA added varied from 23 to 30 μg depending on the plasmid size. To standardize the luciferase enzyme assays, 2 μg of the RLUC plasmid DNA were also added to each transfection as an internal control. Following the electroporation, protoplasts were diluted with 1 ml of 2×protoplast culture medium, aliquoted as two 1 ml cultures and incubated at 27° C. for 16-17 h. Each plasmid construct was tested in 5 to 7 independent transfection experiments.
Protoplast cultures were lysed by adding 250 μl of 5× passive lysis buffer (Promega) and shaking at room temperature for 10 minutes. […] The assay was performed with a luminometer plate reader (Dynex). The luciferase enzyme activities were measured and expressed as ratios of luciferase to Renilla luciferase activities in relative light units.
Induction of the Luc gene expression cassette was controlled by the addition of EcR ligand methoxyfenozide.
It contains a constitutively expressed chimeric GVE receptor gene (CsVMV promoter—sequences coding for GAL4 DNA binding domain, VP16 activation domain, and EcR ligand binding domain—NOS terminator) and an inducible promoter (five copies of GAL4 response element+minimal 35S promoter) to drive LUC gene expression (FIG. 1D). When the ligand methoxyfenozide (4) is applied to protoplasts, it binds to and activates the chimeric receptor. The activated receptor then induces LUC gene expression. This system was used to activate the upstream LUC gene, and the influence of LUC activation on the downstream constitutive RLUC gene expression was then measured.

With `COc1cccc(C(=O)NN(C(=O)c2cc(C)cc(C)c2)C(C)(C)C)c1C` [methoxyfenozide] the “Luc Induced” value (10 μM methoxyfenozide) was 25,428 RLU, the “RLuc Induced” value (10 μM methoxyfenozide) was 8832 RLU and the “reduction of downstream, constitutively expressed RLuc expression” value (after activation of upstream Luc gene with ligand) was 71%.
